Experimental data taken from patent US11731933B2, “Device and method for the desalination of water by means of thermal deionisation and liquid-phase ion extraction liquid” (ADIONICS, priority 2015, dated 2023).
“And” between values parts separate entries of the source, which are not always exact repeats. Equal values may be shown once.

Columns and labels:
[1] = NaCl extraction from 0.4M NaCl water by ASM + Calix[4]Est in chloroform (Example 11); conditions: for NaCl - 20° C. % ext (average) / NaCl - 60° C. % ext (average): average molar extraction; for Mol % Cl- extracted from the water to be treated / Mol % Na+ extracted from the water to be treated: CEM 0.3 Mol/L, ASM 0.3 Mol/L in CHCl3, 0.4 M NaCl; for Δ % ext: difference 20° C. minus 60° C.
Protocol: The extraction composition is obtained by solubilizing an amount of 4-tert-butyl Calix[4]arene tetraethyl Ester (CAS No. 97600-39-0) and ASM in chloroform CHCl3 to obtain a final concentration after solubilization of the CEM and ASM of 0.3 mol/L for Calix[4]Est and of 0.3 mol/L for ASM, respectively. These sealed formulations were then orbitally stirred at 500 rpm for 2 hours after adding an equivalent volume of twice distilled water to allow water saturation of the entire formulation and control of pH output (pH=7). The extraction composition is then put to stand to settle. All the compositions tested are stable and rapidly decanted (a few minutes at the most).
A 0.4 mol/L NaCl aqueous solution was prepared from twice distilled water.
The organic extraction composition is then slightly heated to promote solubilization of the compounds by hot air gun (temperature of about 50 to 60° C.) for a few seconds (10 to 30 seconds) until a clear solution is obtained.
3 mL of the organic extraction composition is then removed from the lower phase of the settled two-phase mixture and transferred to a vial containing 3 mL of salt water at 0.4 M NaCl and then the flask is sealed and orbitally stirred (at 500 revolutions per minute), for 2 hours at room temperature (RT), that is to say between 20 and 25° C. In the case of extraction at 60° C., magnetic stirring (at 500 revolutions per minute), for 2 hours, is carried out with indirect heating in a metal mold on a heating plate. It is verified that droplets of the order of 1-2 mm are present during these agitations in order to be certain to achieve equilibrium in the NaCl distribution between the two liquid phases at the end of stirring. The appearance of the organic and aqueous phases is clear and colorless or slightly cloudy.
After stirring for 2 hours, stirring is stopped and the solution is put to stand to settle within 10 minutes, at least until the two phases have completely separated off, at the temperature of the test. The upper aqueous phase is then removed and then stirred and diluted for analysis of its salinity by a Metrohm Ion Chromatograph incorporating a suitable cation analysis column and a suitable anion analysis column. Similarly, the initial aqueous solution of NaCl at 0.4M is also analyzed by this ion chromatograph to determine its relative molar concentration in sodium and in chlorides. AN extractions and analyzes were duplicated.

[2] = NaCl extraction from 0.2M NaCl water by ASM/CEM composition, ion chromatography of treated water; conditions: ASM: 3TFMPhOH; CEM 0.2M; NaCl 0.2M water
Protocol: To 3 mL of 3-(trifluoromethyl)phenol, was added 217 mg of Dibenzo-18-crown-6 in order to obtain a formulation with 0.2 mole/L of DB18C6. This sealed formulation was then orbitally stirred at 500 rpm overnight after 1 mL of distilled water was added twice to allow water saturation of the whole.
The next morning, an aqueous 0.2 mol/L NaCl solution was prepared from twice distilled water, while the formulation that was stirred overnight was allowed to stand for decantation. A clear decantation of the two colorless phases is obtained in a few minutes. 3 mL of the organic extraction solution is then removed and transferred to a flask containing 3 mL of this salt water containing 0.2 M NaCl, then the flask is sealed and orbitally stirred (usually 500 rpm), for 3 hours and at room temperature. It is verified that droplets of the order of 1-2 mm are present in quantity at the selected stirring speed (400 to 900 rpm).
After stirring for 2 hours, stirring is stopped and the whole is left to stand for decantation for at least 10 minutes until the two phases are completely separated. The upper aqueous phase is then removed and then stirred and diluted for analysis of its salinity by a Metrohm Ion Chromatography Incorporating a suitable cation analysis column and a suitable anion analysis column. Similarly, the initial aqueous solution of 0.2M NaCl is also analyzed by this ion chromatography equipment to determine its relative concentration of sodium and chlorides. […]

[3] = methanol; cited from earlier work
[4] = methanol, published complexing constants; cited from earlier work

## CCCCCCCCCC(=O)Nc1cc(C(F)(F)F)cc(C(F)(F)F)c1 [ASMC9, N-[3,5-bis(trifluoromethyl)phenyl]decanamide]
[1]
  NaCl - 20° C. % ext (average): 24.4%
  Δ % ext: 17.9%
[1]; 60° C.
  Mol % Cl- extracted from the water to be treated: 6.9% and 8.0%
  Mol % Na+ extracted from the water to be treated: 5.4% and 5.7%
  NaCl - 60° C. % ext (average): 6.5%
[1]; RT
  Mol % Cl- extracted from the water to be treated: 27.1% and 23.8%
  Mol % Na+ extracted from the water to be treated: 25.2% and 21.7%

## CCCCCCCCCCCC(=O)Nc1cc(C(F)(F)F)cc(C(F)(F)F)c1 [ASMC11, N-[3,5-bis(trifluoromethyl)phenyl]dodecanamide]
[1]
  NaCl - 20° C. % ext (average): 23.8%
  Δ % ext: 18.0%
[1]; 60° C.
  Mol % Cl- extracted from the water to be treated: 4.9% and 7.7%
  Mol % Na+ extracted from the water to be treated: 3.4% and 7.1%
  NaCl - 60° C. % ext (average): 5.8%
[1]; RT
  Mol % Cl- extracted from the water to be treated: 24.5% and 25.3%
  Mol % Na+ extracted from the water to be treated: 22.4% and 23.1%

## CCCCCCCCCCCCCC(=O)Nc1cc(C(F)(F)F)cc(C(F)(F)F)c1 [ASMC13, N-[3,5-bis(trifluoromethyl)phenyl]tetradecanamide]
[1]
  NaCl - 20° C. % ext (average): 25.0%
  Δ % ext: 17.2%
[1]; 60° C.
  Mol % Cl- extracted from the water to be treated: 6.9% and 9.4%
  Mol % Na+ extracted from the water to be treated: 5.9% and 9.0%
  NaCl - 60° C. % ext (average): 7.8%
[1]; RT
  Mol % Cl- extracted from the water to be treated: 26.2% and 27.4%
  Mol % Na+ extracted from the water to be treated: 22.7% and 23.8%

## Nc1cc(C(F)(F)F)cc(C(F)(F)F)c1 [AnilineF*, 3,5-Di(trifluoromethyl)aniline, reference compound]
[1]
  NaCl - 20° C. % ext (average): 2.7%
  Δ % ext: 2.7%
[1]; 60° C.
  Mol % Cl- extracted from the water to be treated: not detected
  NaCl - 60° C. % ext (average): 0.0%
[1]; RT
  Mol % Cl- extracted from the water to be treated: 4.3% and 2.9%
  Mol % Na+ extracted from the water to be treated: 2.0% and 1.8%

## C1CCC2OCCOCCOCCOCCOC2C1 (centres unmarked) [C15C5, Perhydrobenzo[b]-1,4,7,10,′3-pentaoxacyclopentadecane]
[2]
  Extraction rate at 23° C., Cl−: 30.7%
  Extraction rate at 23° C., Na+: 21.0%
  Extraction rate at 23° C., mean NaCl: 26.0%
[3]
  Log K(K+, MeOH, 25° C.): 3.96
[4]
  Log K(Na+, MeOH, 25° C.): 3.71-3.9
